Values belong to the compound of their own block, whether it stands above or below them.
Settings: Liquid, Chromatography

vapor or sublimation pressure (323.65 K): 20 kPa
vapor or sublimation pressure (372.33 K): 101.3 kPa
SMILES: CC(C)CC(C)(C)C [2,2,4-trimethylpentane]

SMILES: CCC(C)=O [butanone]
vapor or sublimation pressure (309.65 K): 20 kPa
vapor or sublimation pressure (319.95 K): 30 kPa
vapor or sublimation pressure (352.68 K): 101.3 kPa

vapor or sublimation pressure (324.56 K): 20 kPa
vapor or sublimation pressure (371.35 K): 101.3 kPa
SMILES: CCCCCCC [heptane]

vapor or sublimation pressure (307.66 K): 30 kPa
vapor or sublimation pressure (341.79 K): 101.3 kPa
SMILES: CCCCCC [hexane]

Reference: the NIST ThermoML archive (doi:10.1016/j.fluid.2011.05.004)
